Entries after “also recorded” stand apart in the source; their conditions may differ. Like-named read-outs stand apart in the source and are kept apart here.
How the values were obtained:
rat adipocytes = test: Lipogenesis bioassay ([U-14C]glucose incorporation into lipids) in rat adipocytes; assay type: cell-based; settings: for Percent of maximal effect of insulin, Amino acid-HXM only (10 μM): free amino acid monohydroxamate 10 μM, lipogenesis; for Net Potentiating Effect (%): potentiation of lipogenic capacity of VOCl2 10 μM by equimolar HXM; for Potentiation of the insulinomimetic (lipogenic) efficacy of VOCl2, in words / Synergizing effect relative to that exerted by Glu(γ)HXM: vanadium (+4); for Potentiation of the insulinomimetic (lipogenic) efficacy of VOCl2, in words: equimolar HXM; for Synergizing effect relative to that exerted by Glu(γ)HXM: 1:1 molar ratio
Procedure: The fat pads of male Wistar rats were cut into small pieces with scissors and suspended in 3 ml of KRB buffer. […] Five ml of buffer was then added, and the cells were passed through a mesh screen. The cells were then allowed to stand for several minutes in a 15-ml plastic test tube at room temperature, floating, and the buffer underneath was removed. This procedure (suspension, floating, and removal of buffer underneath) was repeated three times.
In the lipogenic assay, for measurement of glucose uptake and its incorporation into lipids (lipogenesis), the adipocyte suspensions (3×10^5 cells/ml) were divided into plastic vials (0.5 ml per vial) and incubated for 60 min at 37° C. under an atmosphere of carbogen with 0.2 mM [U-^14C]glucose (4-7 mCi/mol), in either the absence or presence of insulin (100 ng/ml), and the complexes to be tested.

murine leukemia L5178Y [1] = settings: in vivo; cited from earlier work
murine leukemia L5178Y [2] = settings: in vitro; cited from earlier work
Friend leukemia cells = settings: in vitro; cited from earlier work
[3] = test system: vanadium-enriched adipocytes; test: Lipogenesis in vanadium-enriched versus normal adipocytes; assay type: cell-based, rat; settings: rats given NaVO3 12 mg/kg/day s.c. for five days (FIG. 8)
Procedure: Lipogenesis was performed as described above using free Glu(γ)HXM to compare freshly prepared rat adipocytes (3×10^5 cells/ml) from non-enriched vanadium rats to the enriched-vanadium rats.

STZ-rats = test: Blood glucose level in streptozocin(STZ)-treated rats; assay type: in vivo, rat
Procedure: (b) Streptozocin(STZ)-treated rats: Diabetes was induced by a single intravenous injection of a freshly prepared solution of streptozocin (55 mg/kg of body weight) in 0.1 M citrate buffer (pH 4.5).
Each group received daily i.p. injections of 0.05 mmol/kg (at 11.00 a.m.), of the corresponding compound.

adipocytes = test: Hexose influx (2-deoxy-D-[6-3H]glucose) into adipocytes; assay type: cell-based, rat; settings: for Hexose influx, in words: two different concentrations (FIG. 4)
Procedure: In order to test the specific effect of free Glu(γ)HXM and the Glu(γ)HXM:NaVO3 (2:1) complex on the entrance of glucose into cells, an in vitro assay was performed using 2-deoxy-D-[6-^3H]glucose (2-DG). 2-DG is a non-metabolized analog of glucose and this assay thus represents the influence of a compound on glucose influx to cells, independent of glucose metabolism.
Aliquots (70 μl) of the aforementioned samples were transferred into tubes that contained 2-deoxy-D-[6-^3H]glucose (0.1 mM final concentration). After 3 minutes, phloretin ([…]) was added in order to terminate the penetration of 2-DG into the cells. Samples of the suspended cells were then transferred to tubes with silicone oil where, upon centrifugation, the cells separate from the KRB medium and leftover 2-DG.

[4] = test system: isoproterenol mediated lipolysis; test: Inhibition of isoproterenol mediated lipolysis in vitro; assay type: cell-based
leukemia L1210 cells = settings: in vitro; cited from earlier work
melanoma B16 cells = settings: in vivo; cited from earlier work
leukemia L1210 = settings: in vivo; cited from earlier work
InsRTK = InsRTK (Rattus norvegicus, UniProt P15127); settings: cited from earlier work
Chain of InsRTK (P15127 27-1383): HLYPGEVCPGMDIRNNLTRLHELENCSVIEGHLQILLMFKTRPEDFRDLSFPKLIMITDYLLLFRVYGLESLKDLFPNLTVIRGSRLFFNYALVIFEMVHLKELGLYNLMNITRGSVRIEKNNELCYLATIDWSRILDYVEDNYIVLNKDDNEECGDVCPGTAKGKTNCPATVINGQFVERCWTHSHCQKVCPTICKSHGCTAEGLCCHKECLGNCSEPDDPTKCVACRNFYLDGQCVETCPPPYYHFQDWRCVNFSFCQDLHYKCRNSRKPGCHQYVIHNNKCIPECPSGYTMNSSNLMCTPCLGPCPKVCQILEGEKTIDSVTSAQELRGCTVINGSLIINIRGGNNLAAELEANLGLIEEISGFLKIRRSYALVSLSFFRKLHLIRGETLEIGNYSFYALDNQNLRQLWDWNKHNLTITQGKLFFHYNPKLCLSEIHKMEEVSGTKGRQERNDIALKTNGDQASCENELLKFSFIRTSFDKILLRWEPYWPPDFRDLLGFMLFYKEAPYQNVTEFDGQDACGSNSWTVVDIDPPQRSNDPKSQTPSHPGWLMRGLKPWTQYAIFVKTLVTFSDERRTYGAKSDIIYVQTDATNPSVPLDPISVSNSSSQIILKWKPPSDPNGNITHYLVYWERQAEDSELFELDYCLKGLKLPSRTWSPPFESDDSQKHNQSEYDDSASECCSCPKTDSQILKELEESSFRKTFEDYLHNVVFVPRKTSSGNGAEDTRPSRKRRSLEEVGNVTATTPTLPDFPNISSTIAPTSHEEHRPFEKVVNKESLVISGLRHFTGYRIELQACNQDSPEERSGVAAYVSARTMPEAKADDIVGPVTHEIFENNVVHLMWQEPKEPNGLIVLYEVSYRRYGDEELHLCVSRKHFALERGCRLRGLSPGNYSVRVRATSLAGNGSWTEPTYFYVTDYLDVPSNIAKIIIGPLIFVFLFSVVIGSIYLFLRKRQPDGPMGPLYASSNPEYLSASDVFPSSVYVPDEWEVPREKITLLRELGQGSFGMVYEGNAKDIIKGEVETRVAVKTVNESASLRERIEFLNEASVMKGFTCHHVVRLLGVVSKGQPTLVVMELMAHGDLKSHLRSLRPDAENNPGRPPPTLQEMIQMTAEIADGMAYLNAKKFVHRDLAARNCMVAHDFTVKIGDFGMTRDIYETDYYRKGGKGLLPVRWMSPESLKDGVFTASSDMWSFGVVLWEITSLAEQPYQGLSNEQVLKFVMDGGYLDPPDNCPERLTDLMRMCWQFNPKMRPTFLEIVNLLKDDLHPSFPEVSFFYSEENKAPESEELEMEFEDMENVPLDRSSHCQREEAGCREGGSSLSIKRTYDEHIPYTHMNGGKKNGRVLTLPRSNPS

[5] = insulin 100 ng/ml, typical experiment

**Q.** For `CC(C)(N)C(=O)NO` [Aib-HXM, aminoisobutyric acid monohydroxamate], which “Percent of maximal effect of insulin, Amino acid-HXM only (10 μM)” value (“Percent of maximal effect of insulin” below) (rat adipocytes) is on record?
**A.** 0% (−3%)

**Q.** What about the “Net Potentiating Effect (%)” value (rat adipocytes) of the same molecule?
**A.** 0%

**Q.** Which “Percent of maximal effect of insulin” value (rat adipocytes) does the source give for `N=C(N)NCCC[C@H](N)C(=O)NO` [Arg-HXM, L-arginine hydroxamate] here?
**A.** 4%

**Q.** What about the “Net Potentiating Effect (%)” value (rat adipocytes) of the same molecule?
**A.** ˜2%

**Q.** Which “Antitumoral activity, in words” value (murine leukemia L5178Y [1]) does the source give for `N[C@H](CC(=O)NO)C(=O)O` [D-Asp(β)HXM, D-Aspartic acid β-hydroxamate] here?
**A.** antitumoral activity

**Q.** And the “Antitumoral activity, in words” value (murine leukemia L5178Y [2])?
**A.** antitumoral activity

**Q.** What about the “Activity against Friend leukemia cells, in words” value (Friend leukemia cells) of the same molecule?
**A.** active

**Q.** For `N[C@H](CCC(=O)NO)C(=O)O` [D-Glu(γ)HXM, D-glutamic acid γ-monohydroxamate], which “Synergistic action with vanadium, stereospecificity, in words” value (rat adipocytes) is on record?
**A.** not facilitated

**Q.** And the “Percent of maximal effect of insulin” value (rat adipocytes)?
**A.** 1%

**Q.** And the “Net Potentiating Effect (%)” value (rat adipocytes)?
**A.** 0%

**Q.** What about the “Potentiation of the insulinomimetic (lipogenic) efficacy of VOCl2, in words” value (rat adipocytes) of the same molecule?
**A.** did not potentiate

**Q.** Which “Lipogenesis in the absence of exogeneously added vanadium, in words” value (rat adipocytes; 10-100 μM (FIG. 6)) does the source give for `N[C@@H](CCC(=O)NO)C(=O)O` [Glu(γ)HXM, L-glutamic acid γ-monohydroxamate] here?
**A.** activates lipogenesis; also recorded: produce insulin effects

**Q.** And the “Percent of maximal effect of insulin” value (rat adipocytes)?
**A.** 22%

**Q.** What about the “Activation together with a saturated concentration of insulin, in words” value (rat adipocytes; in vitro) of the same molecule?
**A.** additive to maximal effect

**Q.** And the “Net Potentiating Effect (%)” value (rat adipocytes)?
**A.** 51%

**Q.** And the “Potentiation of vanadium (+5) in activating glucose metabolism in rat adipocytes” value (rat adipocytes; vanadium (+5))?
**A.** 7-10 fold

**Q.** What about the “Potentiation of intracellular vanadium in enriched-vanadium rat cells versus normal adipocytes, in words” value [3] of the same molecule?
**A.** to a much greater extent

**Q.** What about the “Elevation of the efficacy of vanadate to lower blood glucose levels” value (STZ-rats; STZ-treated diabetic rats) of the same molecule?
**A.** 5-7 fold

**Q.** And the “Glucose entry into cells, magnitude as % of maximal insulin response” value (adipocytes; 20 and 40 μM, 30 min preincubation (FIG. 4))?
**A.** about 60%

**Q.** What about the “Hexose influx, in words” value (adipocytes) of the same molecule?
**A.** stimulate hexose influx

**Q.** What about the “Isoproterenol mediated lipolysis, in words” value [4] of the same molecule?
**A.** inhibition of isoproterenol mediated lipolysis

**Q.** What about the “Cytotoxicity, in words” value (leukemia L1210 cells) of the same molecule?
**A.** cytotoxic

**Q.** And the “Cytotoxicity, in words” value (melanoma B16 cells)?
**A.** cytotoxic

**Q.** What about the “Cytotoxicity, in words” value (leukemia L1210) of the same molecule?
**A.** cytotoxic

**Q.** Which “Synergizing effect relative to that exerted by Glu(γ)HXM” value (rat adipocytes) does the source give for `N[C@@H](CC(=O)NO)C(=O)O` [L-Asp(β)HXM, L-aspartic acid β-monohydroxamate] here?
**A.** ~85%

**Q.** What about the “Percent of maximal effect of insulin” value (rat adipocytes) of the same molecule?
**A.** 8%

**Q.** And the “Net Potentiating Effect (%)” value (rat adipocytes)?
**A.** 54%

**Q.** With `NCCCC[C@H](N)C(=O)NO` [Lys-HXM, L-lysine hydroxamate] as the molecule, how does the “Percent of maximal effect of insulin” value (rat adipocytes) read?
**A.** 0% (−4%)

**Q.** And the “Net Potentiating Effect (%)” value (rat adipocytes)?
**A.** 0%

**Q.** For `CC(=O)N[C@@H](CCC(=O)NO)C(=O)O` [N-acetyl Glu(γ)HXM, N-acetyl-L-glutamic acid γ-monohydroxamate], which “Percent of maximal effect of insulin” value (rat adipocytes) is on record?
**A.** 0%

**Q.** What about the “Net Potentiating Effect (%)” value (rat adipocytes) of the same molecule?
**A.** 0%

**Q.** What about the “Potentiation of the insulinomimetic (lipogenic) efficacy of VOCl2, in words” value (rat adipocytes) of the same molecule?
**A.** did not potentiate

**Q.** With `O=C(NO)c1cccnc1` [Nic-HXM, nicotinic acid hydroxamate] as the molecule, how does the “Synergizing effect relative to that exerted by Glu(γ)HXM” value (rat adipocytes) read?
**A.** ~57%

**Q.** And the “Percent of maximal effect of insulin” value (rat adipocytes)?
**A.** 11%

**Q.** What about the “Net Potentiating Effect (%)” value (rat adipocytes) of the same molecule?
**A.** 29%

**Q.** With `CN[C@@H]1C[C@H]2O[C@@](C)([C@@H]1OC)n1c3ccccc3c3c4c(c5c6ccccc6n2c5c31)C(=O)NC4` [Staurosporine] as the molecule, how does the Ki (InsRTK) read?
**A.** ~1 µM

**Q.** With `N[C@@H](Cc1c[nH]c2ccccc12)C(=O)NO` [Trp-HXM, L-tryptophan hydroxamate] as the molecule, how does the “Percent of maximal effect of insulin” value (rat adipocytes) read?
**A.** 2%

**Q.** What about the “Net Potentiating Effect (%)” value (rat adipocytes) of the same molecule?
**A.** ˜9%

**Q.** For `Cl.Cl.[O]=[V]` [VOCl2, vanadyl chloride], which “Effect on blood glucose levels of STZ-rats, in words” value (STZ-rats; i.p. 0.02 mmol/kg/day, 12 days (FIG. 2)) is on record?
**A.** no significant effect

**Q.** What does the source list for L-histidine hydroxamate [His-HXM]?
**A.** Percent of maximal effect of insulin, Amino acid-HXM only (10 μM) (rat adipocytes): 4%; Net Potentiating Effect (%) (rat adipocytes): ˜3%

**Q.** With “insulin: Porcine insulin purchased from Eli Lilly Co.” as the molecule, how does the “Insulin-stimulated lipogenesis relative to basal” value (rat adipocytes; [5]) read?
**A.** 4-5 fold

**Q.** And the Vinsulin (rat adipocytes; [5])?
**A.** 8,000-10,000 cpm per 3×10^5 cell/h

**Q.** With sodium metavanadate [NaVO3] as the molecule, how does the “Hexose influx, in words” value (adipocytes) read?
**A.** stimulate hexose influx
